Experimental data taken from PubChem BioAssay (NCI).
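1) Cells in 96-well plates. 2) Compound, 48 h, 5 concentrations. 3) Linear interpolation between surrounding doses. 4) Unreached endpoint = highest concentration. At the GI50, growth is halved. TGI denotes the concentration required for complete inhibition of growth.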

Tests used:
Test in all cases: growth of human tumour cells (NCI), 48 h
HOP-92 NSCLC = test system: HOP-92 NSCLC
HCC-2998 colon = test system: HCC-2998 colon
CAKI-1 renal = test system: CAKI-1 renal
PC-3 prostate = test system: PC-3 prostate
U251 CNS = test system: U251 CNS
MDA-MB-435 = test system: MDA-MB-435
SK-OV-3 ovarian = test system: SK-OV-3 ovarian
LOX IMVI melanoma = test system: LOX IMVI melanoma
SK-MEL-28 melanoma = test system: SK-MEL-28 melanoma
MOLT-4 leukemia = test system: MOLT-4 leukemia
ACHN renal = test system: ACHN renal
HCT-116 colon = test system: HCT-116 colon
BT-549 breast = test system: BT-549 breast
OVCAR-5 ovarian = test system: OVCAR-5 ovarian
CCRF-CEM leukemia = test system: CCRF-CEM leukemia
A498 renal = test system: A498 renal
HOP-62 NSCLC = test system: HOP-62 NSCLC
UACC-62 melanoma = test system: UACC-62 melanoma
OVCAR-4 ovarian = test system: OVCAR-4 ovarian
SNB-19 CNS = test system: SNB-19 CNS
MDA-MB-231 breast = test system: MDA-MB-231 breast
HCT-15 colon = test system: HCT-15 colon
COLO 205 colon = test system: COLO 205 colon
T-47D breast = test system: T-47D breast
DU-145 prostate = test system: DU-145 prostate
SK-MEL-5 melanoma = test system: SK-MEL-5 melanoma
RXF 393 renal = test system: RXF 393 renal
NCI-H460 lung = test system: NCI-H460 lung
NCI/ADR-RES ovarian = test system: NCI/ADR-RES ovarian
OVCAR-8 ovarian = test system: OVCAR-8 ovarian
SF-295 CNS = test system: SF-295 CNS
SNB-75 CNS = test system: SNB-75 CNS
NCI-H23 lung = test system: NCI-H23 lung
K-562 leukemia = test system: K-562 leukemia
RPMI-8226 leukemia = test system: RPMI-8226 leukemia
SW-620 colon = test system: SW-620 colon
UO-31 renal = test system: UO-31 renal
SK-MEL-2 melanoma = test system: SK-MEL-2 melanoma
MCF7 breast = test system: MCF7 breast
OVCAR-3 ovarian = test system: OVCAR-3 ovarian
786-0 renal = test system: 786-0 renal
A549 NSCLC = test system: A549 NSCLC
SF-268 CNS = test system: SF-268 CNS
TK-10 renal = test system: TK-10 renal
UACC-257 melanoma = test system: UACC-257 melanoma
NCI-H226 lung = test system: NCI-H226 lung
EKVX NSCLC = test system: EKVX NSCLC
KM12 colon = test system: KM12 colon
M14 melanoma = test system: M14 melanoma
HT29 colon = test system: HT29 colon
IGROV1 ovarian = test system: IGROV1 ovarian
HL-60(TB) leukemia = test system: HL-60(TB) leukemia
SF-539 CNS = test system: SF-539 CNS
MALME-3M melanoma = test system: MALME-3M melanoma
SN12C renal = test system: SN12C renal
NCI-H522 lung = test system: NCI-H522 lung
HS 578T breast = test system: HS 578T breast
SR leukemia = test system: SR leukemia

CN(C)C(=O)C(F)(F)C(c1ccccc1)C1C(=O)N(C)C(=O)N(C)C1=O (stereo not drawn)
TGI (HOP-92 NSCLC): > 100 µM
TGI (HCC-2998 colon): > 100 µM
TGI (CAKI-1 renal): > 100 µM
TGI (PC-3 prostate): > 100 µM
TGI (U251 CNS): > 100 µM
TGI (MDA-MB-435): > 100 µM
TGI (SK-OV-3 ovarian): > 100 µM
TGI (LOX IMVI melanoma): > 100 µM
TGI (SK-MEL-28 melanoma): > 100 µM
TGI (MOLT-4 leukemia): > 100 µM
TGI (ACHN renal): > 100 µM
TGI (HCT-116 colon): > 100 µM
TGI (BT-549 breast): > 100 µM
TGI (OVCAR-5 ovarian): > 100 µM
TGI (CCRF-CEM leukemia): > 100 µM
TGI (A498 renal): > 100 µM
TGI (HOP-62 NSCLC): > 100 µM
TGI (UACC-62 melanoma): > 100 µM
TGI (OVCAR-4 ovarian): > 100 µM
TGI (SNB-19 CNS): > 100 µM
TGI (MDA-MB-231 breast): > 100 µM
TGI (HCT-15 colon): > 100 µM
TGI (COLO 205 colon): > 100 µM
TGI (T-47D breast): > 100 µM
TGI (DU-145 prostate): > 100 µM
TGI (SK-MEL-5 melanoma): > 100 µM
TGI (RXF 393 renal): > 100 µM
TGI (NCI-H460 lung): > 100 µM
TGI (NCI/ADR-RES ovarian): > 100 µM
TGI (OVCAR-8 ovarian): > 100 µM
TGI (SF-295 CNS): > 100 µM
TGI (SNB-75 CNS): > 100 µM
TGI (NCI-H23 lung): > 100 µM
TGI (K-562 leukemia): > 100 µM
TGI (RPMI-8226 leukemia): > 100 µM
TGI (SW-620 colon): > 100 µM
TGI (UO-31 renal): > 100 µM
TGI (SK-MEL-2 melanoma): > 100 µM
TGI (MCF7 breast): > 100 µM
TGI (OVCAR-3 ovarian): > 100 µM
TGI (786-0 renal): > 100 µM
TGI (A549 NSCLC): > 100 µM
TGI (SF-268 CNS): > 100 µM
TGI (TK-10 renal): > 100 µM
TGI (UACC-257 melanoma): > 100 µM
TGI (NCI-H226 lung): > 100 µM
TGI (EKVX NSCLC): > 100 µM
TGI (KM12 colon): > 100 µM
TGI (M14 melanoma): > 100 µM

O=C(Nc1cccc(-n2ccc3c(NC(=O)c4ccccc4)ncnc32)c1)Nc1ccc(Cl)c(C(F)(F)F)c1
GI50 (HOP-92 NSCLC): 0.556 µM
TGI (HOP-92 NSCLC): 4.31 µM
GI50 (HCC-2998 colon): 4.2 µM
TGI (HCC-2998 colon): 14.9 µM
GI50 (HT29 colon): 1.87 µM
TGI (HT29 colon): 7.87 µM
GI50 (CAKI-1 renal): 2.04 µM
TGI (CAKI-1 renal): 10.9 µM
GI50 (PC-3 prostate): 1.25 µM
TGI (PC-3 prostate): 5.93 µM
GI50 (U251 CNS): 2.09 µM
TGI (U251 CNS): 8.39 µM
GI50 (MDA-MB-435): 1.44 µM
TGI (MDA-MB-435): 5.6 µM
GI50 (LOX IMVI melanoma): 2.82 µM
TGI (LOX IMVI melanoma): 15 µM
GI50 (SK-MEL-28 melanoma): 2.75 µM
TGI (SK-MEL-28 melanoma): 9.44 µM
GI50 (MOLT-4 leukemia): 1.77 µM
TGI (MOLT-4 leukemia): 12.7 µM
GI50 (ACHN renal): 1.59 µM
TGI (ACHN renal): 7.38 µM
GI50 (IGROV1 ovarian): 2.92 µM
TGI (IGROV1 ovarian): 17.1 µM
GI50 (HCT-116 colon): 1.85 µM
TGI (HCT-116 colon): 6.66 µM
GI50 (OVCAR-5 ovarian): 2.38 µM
TGI (OVCAR-5 ovarian): 9.69 µM
GI50 (CCRF-CEM leukemia): 0.655 µM
TGI (CCRF-CEM leukemia): 9.04 µM
GI50 (A498 renal): 2.65 µM
TGI (A498 renal): 9.51 µM
GI50 (HOP-62 NSCLC): 5.62 µM
TGI (HOP-62 NSCLC): 11.8 µM
GI50 (UACC-62 melanoma): 1.77 µM
TGI (UACC-62 melanoma): 7.52 µM
GI50 (OVCAR-4 ovarian): 2.36 µM
TGI (OVCAR-4 ovarian): 8.18 µM
GI50 (SNB-19 CNS): 4.41 µM
TGI (SNB-19 CNS): 10.8 µM
GI50 (MDA-MB-231 breast): 2.06 µM
TGI (MDA-MB-231 breast): 7.94 µM
GI50 (HCT-15 colon): 2.51 µM
TGI (HCT-15 colon): 10.2 µM
GI50 (COLO 205 colon): 2.67 µM
TGI (COLO 205 colon): 8.36 µM
GI50 (T-47D breast): 2.61 µM
TGI (T-47D breast): 9.85 µM
GI50 (DU-145 prostate): 4.52 µM
TGI (DU-145 prostate): 11.3 µM
GI50 (SK-MEL-5 melanoma): 2.2 µM
TGI (SK-MEL-5 melanoma): 8.16 µM
GI50 (HL-60(TB) leukemia): 1.87 µM
TGI (HL-60(TB) leukemia): 5.28 µM
GI50 (RXF 393 renal): 1.68 µM
TGI (RXF 393 renal): 6.66 µM
GI50 (NCI-H460 lung): 2.13 µM
TGI (NCI-H460 lung): 9.88 µM
GI50 (NCI/ADR-RES ovarian): 3.73 µM
TGI (NCI/ADR-RES ovarian): 32 µM
GI50 (OVCAR-8 ovarian): 1.95 µM
TGI (OVCAR-8 ovarian): 6.67 µM
GI50 (SF-539 CNS): 1.98 µM
TGI (SF-539 CNS): 9.91 µM
GI50 (SF-295 CNS): 1.43 µM
TGI (SF-295 CNS): 7.24 µM
GI50 (SNB-75 CNS): 0.954 µM
TGI (SNB-75 CNS): 9.15 µM
GI50 (NCI-H23 lung): 1.97 µM
TGI (NCI-H23 lung): 18.7 µM
GI50 (K-562 leukemia): 1.61 µM
TGI (K-562 leukemia): 50 µM
GI50 (MALME-3M melanoma): 1.99 µM
TGI (MALME-3M melanoma): 9.01 µM
GI50 (RPMI-8226 leukemia): 1.02 µM
TGI (RPMI-8226 leukemia): 2.8 µM
GI50 (SW-620 colon): 3.26 µM
TGI (SW-620 colon): 10.1 µM
GI50 (UO-31 renal): 3.44 µM
TGI (UO-31 renal): 10.9 µM
GI50 (SK-MEL-2 melanoma): 1.18 µM
TGI (SK-MEL-2 melanoma): 3.64 µM
GI50 (MCF7 breast): 1.49 µM
TGI (MCF7 breast): 6.14 µM
GI50 (OVCAR-3 ovarian): 2.62 µM
TGI (OVCAR-3 ovarian): 8.9 µM
GI50 (SN12C renal): 3.09 µM
TGI (SN12C renal): 9.86 µM
GI50 (A549 NSCLC): 2.11 µM
TGI (A549 NSCLC): 7.35 µM
GI50 (SF-268 CNS): 3.69 µM
TGI (SF-268 CNS): 10.5 µM
GI50 (NCI-H522 lung): 1.36 µM
TGI (NCI-H522 lung): 6.31 µM
GI50 (TK-10 renal): 2.14 µM
TGI (TK-10 renal): 7.75 µM
GI50 (HS 578T breast): 2.55 µM
TGI (HS 578T breast): 22.6 µM
GI50 (UACC-257 melanoma): 2.67 µM
TGI (UACC-257 melanoma): 8.43 µM
GI50 (NCI-H226 lung): 5.27 µM
TGI (NCI-H226 lung): 11.5 µM
GI50 (EKVX NSCLC): 2.71 µM
TGI (EKVX NSCLC): 9.84 µM
GI50 (SR leukemia): 2.35 µM
TGI (SR leukemia): 15 µM
GI50 (KM12 colon): 1.95 µM
TGI (KM12 colon): 8.16 µM
GI50 (M14 melanoma): 1.75 µM
TGI (M14 melanoma): 5.98 µM

CCCS(=O)(=O)Nc1ccc(F)c(C(=O)c2c[nH]c3ncc(-c4ccc(OCCCC5CCCCN5)nc4)cc23)c1F (stereo not drawn)
GI50 (HCC-2998 colon): > 100 µM
TGI (HCC-2998 colon): > 100 µM
GI50 (MDA-MB-435): 0.03 µM
TGI (MDA-MB-435): > 100 µM
GI50 (SK-OV-3 ovarian): 0.875 µM
TGI (SK-OV-3 ovarian): > 100 µM
GI50 (ACHN renal): 16.9 µM
TGI (ACHN renal): > 100 µM
GI50 (IGROV1 ovarian): 0.865 µM
TGI (IGROV1 ovarian): > 100 µM
GI50 (HCT-15 colon): > 100 µM
TGI (HCT-15 colon): > 100 µM
GI50 (T-47D breast): 1.28 µM
TGI (T-47D breast): 10.7 µM
GI50 (NCI/ADR-RES ovarian): > 100 µM
TGI (NCI/ADR-RES ovarian): > 100 µM
GI50 (OVCAR-8 ovarian): 9.63 µM
TGI (OVCAR-8 ovarian): > 100 µM
GI50 (SF-295 CNS): 3.97 µM
TGI (SF-295 CNS): > 100 µM
GI50 (UO-31 renal): > 100 µM
TGI (UO-31 renal): > 100 µM
GI50 (SN12C renal): 2.14 µM
TGI (SN12C renal): > 100 µM
GI50 (A549 NSCLC): > 100 µM
TGI (A549 NSCLC): > 100 µM
GI50 (TK-10 renal): 7.79 µM
TGI (TK-10 renal): > 100 µM
GI50 (HS 578T breast): 0.493 µM
TGI (HS 578T breast): 2.82 µM
GI50 (UACC-257 melanoma): 0.0136 µM
TGI (UACC-257 melanoma): 0.0967 µM
GI50 (EKVX NSCLC): > 100 µM
TGI (EKVX NSCLC): > 100 µM
